Measurements as given in patent publication US9150482B2 (Development Center for Biotechnology, priority 2012, dated 2015).
Like-named read-outs stand apart in the source and are kept apart here. Marks after values point to notes of the source that are not given here. Values belong to the compound of their own block, whether it stands above or below them.

What was measured:
RINm5F cells = assay: Insulin secretion tests in rat pancreatic beta cells RINm5F; assay type: cell-based; settings: 2 hours, FIG. 4; for insulin secretion with exendin-4: 16 mM glucose, ELISA; for effect on insulin secretion in the absence of exendin-4: no exendin-4, 16 mM glucose
Procedure: Rat pancreatic beta cell line RINm5F was purchased from the Food Industry Research and Development Institute (Hsinchu, Taiwan), No. BCRC 60410; source: ATCC CRL-11 605. The cells are cultured in 10% FBS RPMI-1640 medium, in a constant temperature CO2 incubator, under 5% CO2, 37° C. and 95% humidity, for subsequent experiments.
To each 96-well plate, add the RINm5F cells (8×10^5 cells/well) and culture the cells for 2 days before the experiments. Before testing, remove the culture medium. To each well in the 96-well plates, add 100 ul of KRPH buffer (136 mM NaCl, 4.8 mM KCl, 1.2 mM CaCl2, 1.2 mM KH2PO4, 1.2 mM MgSO4, 5 mM NaHCO3, 10 mM HEPES), 2.8 mM D-glucose, 0.2% bovine serum albumin, pH 7.4, placed in a CO2 incubator at 37° C. for 30 minutes, to allow the pancreatic islet cells to acclimate to the medium change (from RPMI 1640 to KRPH buffer). Remove the 96-well plates from the incubator. […] Incubate the cells in KRPH buffer and glucose (KRPH +0.2% BSA, 16 mM glucose) containing culture medium for 2 hours to allow for insulin secretion by the islet beta cells under glucose stimulation. The supernatants from the incubation are collected and the concentrations of insulin released in the wells are assayed using ELISA. Various insulin ELISA kits are available from commercial sources, such as Calbiotech (Spring Valley, Calif.), Crystal Chem., Inc. (Downers Grove, Ill.), and Mercodia (Uppsala, Sweden).
Two days after inoculating RINm5F cells, about 8×10^5 cells/well in 96-well plates, add the active ingredients, compounds 1, 2, and 3, from wild ginger flower 95% ethanol extracts, to the cells. […] After 2 hours, the insulin contents in the supernatants are assessed using insulin ELISA kits.

GLP-1 receptor = target: T1, GLP-1 receptor (Homo sapiens, UniProt P43220); assay: Receptor arrestin translocation assay (GLP-1 potentiator activity, U2OS cells transfected with GLP-1 receptor gene); assay type: cell-based
T1 construct: expressed in transfected cells; host or cells: U2OS (human bone osteosarcoma)
Procedure: For example, these cells may be plated as monolayer on a test plate (e.g., a 384-well plate). The cells, for example, may be plated at a density of 4000 cells per well. The test sample concentrations may be 0.2-0.000002 mg/ml. The test volumes may be 25 microliter, and the test time may be 1 hr.
GLP-1 receptors are G-protein coupled receptors with seven transmembrane domains. After activation by hormones or neural stimulants, many G-protein coupled cell surface receptors will internalize from the cell surface to the cytoplasm in endocytosis responses. […] This process may be used to assay the test samples. The extents of receptor endocytosis are closely related to the concentrations of the test samples—the higher the sample concentrations, the stronger the endocytosis responses. Because the densities of cell surface receptors are fixed, when the sample concentrations reach a high number, the extents of endocytosis responses would not increase with increasing sample concentrations, i.e., the response reaches saturation. Based on the concentrations and saturation measurements, one can determine the receptor binding affinities of the test samples.
After activation of G-protein coupled receptors, the receptors are typically desensitized or inactivated. Arrestin is involved in such desensitization or inactivation processes. That is, arrestin will be recruited to the GPCR to desensitize or inactivate the receptors. Therefore, monitoring the translocation of GFP-tagged arrestin from the cytosol to the activated GPCRs on the plasma membrane would allow one to measure the binding of test compounds to the receptor target. (Hudson et al., “High-content screening of know G protein-coupled receptors by arrestin translocation,” Methods Enzymol., 414: 63-78 (2006)).
Using this assay, the following test samples have been assessed: (a) compound 1 (MW 318), (b) compound 2 (MW 318), (c) compound 3 (MW 334), (d) compound 5 (MW 304), (e) compound 6 (MW 376). […] When the sample concentrations reach certain high concentrations, the extents of endocytosis responses will not further increase with increasing sample concentrations because the responses have reached saturation.
Based on the binding curves and saturation measurements as a function of test sample concentrations, the receptor affinities of the test samples can be determined.

normal mice = assay: Intraperitoneal glucose tolerance test (IPGTT) in normal mice; assay type: in vivo, C57BL/6J mice; settings: for hypoglycemic effects: oral, normal mice IPGTT; for Blood glucose concentration: mean±SEM
Procedure: In this example, in vivo IPGTT is used to validate the blood glucose lowering activity of compound 1 (purity 70%). Twenty-four (24) six weeks old C57BL/6J mice are fed normal diets in an environment of 12/12 light-dark cycles and a constant temperature controlled at 24±2° C. with an unlimited supply of water and food. The mice are divided into four groups of six each, including a control group and three compound 1 (purity 70%) groups. The three compound 1 groups are respectively given orally compound 1 at dosages of 40 mg/Kg, 60 mg/Kg, and 80 mg/Kg. Mice fasted overnight are allowed to eat for 1 hour. After feeding, wait for another hour before giving the test drugs. Thirty (30) minutes after drug administration, glucose at a dose of 1.5 g/kg body weigh is injected intraperitoneally. Blood glucose levels are measured before the glucose injection (0 minutes), as well as at 30, 60 and 90 minutes after the glucose injection, to observe the blood glucose level change curves.
As shown in FIG. 5 and summarized in the Table below, data are expressed as mean±standard error (SEM). P values are calculated using the t test in the Sigma statistical software, wherein p<0.05 is considered significant and marked as *; p<0.01 is considered highly significant and is marked as **; and p≦0.001 is considered extremely significant and marked as ***.

T1 sequence (P43220 24-463, species assumed): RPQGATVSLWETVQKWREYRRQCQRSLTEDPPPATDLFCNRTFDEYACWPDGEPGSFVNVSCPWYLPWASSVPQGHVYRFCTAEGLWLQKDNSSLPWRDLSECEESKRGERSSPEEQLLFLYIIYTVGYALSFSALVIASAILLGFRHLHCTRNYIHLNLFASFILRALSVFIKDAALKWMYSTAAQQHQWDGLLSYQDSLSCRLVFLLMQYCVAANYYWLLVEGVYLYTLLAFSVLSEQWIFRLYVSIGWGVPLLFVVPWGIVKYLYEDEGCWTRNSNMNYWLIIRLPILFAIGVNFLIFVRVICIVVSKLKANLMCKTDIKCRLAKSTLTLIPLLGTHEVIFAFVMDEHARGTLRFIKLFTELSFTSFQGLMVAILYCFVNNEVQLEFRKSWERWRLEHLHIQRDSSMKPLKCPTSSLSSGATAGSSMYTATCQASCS

Structure (SMILES): CC1(C)CCC[C@]2(C)[C@H]3CC=C(C=O)C[C@@H](O)[C@]3(C=O)CC[C@@H]12 [Compound 1, Galanal B]
insulin secretion with exendin-4 (RINm5F cells; exendin-4 2 nM): stimulate more insulin secretions
effect on insulin secretion in the absence of exendin-4 (RINm5F cells): substantially abolished
EC50 (GLP-1 receptor; GLP-1 4-8 nM constant, U2OS cells expressing GLP-1R, FIG. 3): 6.603 µg/mL
hypoglycemic effects (normal mice; 40 mg/Kg group): 41%
Blood glucose concentration (normal mice; 40 mg/kg oral, compound 1 purity 70%, 0 minute (before glucose injection)): 120.5 ± 3.8 mg/dL
Blood glucose concentration (normal mice; 40 mg/kg oral, purity 70%, 30 minute after glucose 1.5 g/kg i.p.): 168.2 ± 3.0** mg/dl
Blood glucose concentration (normal mice; 40 mg/kg oral, purity 70%, 60 minute after glucose): 127.0 ± 4.4 mg/dL
Blood glucose concentration (normal mice; 40 mg/kg oral, purity 70%, 90 minute after glucose): 117.3 ± 3.4 mg/dL
hypoglycemic effects (normal mice; 60 mg/Kg group): 45%
Blood glucose concentration (normal mice; 60 mg/kg oral, purity 70%, 0 minute (before glucose injection)): 121.5 ± 3.7 mg/dL
Blood glucose concentration (normal mice; 60 mg/kg oral, purity 70%, 30 minute after glucose): 169.2 ± 3.6** mg/dl
Blood glucose concentration (normal mice; 60 mg/kg oral, purity 70%, 60 minute after glucose): 128.0 ± 4.0 mg/dL
Blood glucose concentration (normal mice; 60 mg/kg oral, purity 70%, 90 minute after glucose): 111.3 ± 2.9* mg/dl
hypoglycemic effects (normal mice; 80 mg/Kg group): 71%
Blood glucose concentration (normal mice; 80 mg/kg oral, purity 70%, 0 minute (before glucose injection)): 120.8 ± 3.7 mg/dL
Blood glucose concentration (normal mice; 80 mg/kg oral, purity 70%, 30 minute after glucose): 154.0 ± 2.5*** mg/dl
Blood glucose concentration (normal mice; 80 mg/kg oral, purity 70%, 60 minute after glucose): 120.3 ± 1.8** mg/dl
Blood glucose concentration (normal mice; 80 mg/kg oral, purity 70%, 90 minute after glucose): 106.7 mg/dL

Structure (SMILES): C=C1CCC2C(C)(C)CCC[C@]2(C)[C@H]1C/C=C(/C=O)CCO (stereo partly drawn) [Compound 5, (E)-labda-8(17),12-diene-15-ol-16-al]
EC50 (GLP-1 receptor; read-out: EC50 (converted)): 8.14 µM

Structure (SMILES): C=C1CCC2C(C)(C)CCC[C@]2(C)[C@H]1C/C=C(/C=O)CC(OCC)OCC (stereo partly drawn) [Compound 6, (E)-15,15-diethoxylabda-8(17),12-dien-16-al]
EC50 (GLP-1 receptor; read-out: EC50 (converted)): 11.6 µM

More lines, main results first:

EC50 (GLP-1 receptor; read-out: EC50 (converted)): 0.196 µM
GLP-1 potentiator activity (in words) (GLP-1 receptor; summary of FIG. 3 results): most potent
Structure (SMILES): C=C1CCC2C(C)(C)CCCC2(C)C1C1C=C(C=O)CC(O)OO1 (stereo not drawn) [Compound 3, Coronarin B]
insulin secretion with exendin-4 (RINm5F cells; exendin-4 5 nM): stimulate more insulin secretions
effect on insulin secretion in the absence of exendin-4 (RINm5F cells): substantially abolished

EC50 (GLP-1 receptor; read-out: EC50 (converted)): 13.9 µM
Structure (SMILES): C=C1CCC2C(C)(C)CCC[C@]2(C)C1C1C=C(C=O)CC(O)O1 (stereo partly drawn) [Compound 2, 11-hydroxy-8(17),12(E)-labdadien-15,16-dial 11,15-hemiacetal]
insulin secretion with exendin-4 (RINm5F cells; exendin-4 5 nM): stimulate more insulin secretions
effect on insulin secretion in the absence of exendin-4 (RINm5F cells): substantially abolished
